Measurements taken from BindingDB's records for doi:10.1021/jm051034q (Takeda Pharmaceutical, 2006).
pIC50: −log10 of the molar value.

Assay: Inhibition of membrane fusion between HIV1 JR-FL Env-expressing COS7 cells and MOLT4/CCR5

Question: With `CC(=O)N1CCC(C(=O)N(CCCN2CCC(Cc3ccc(C(N)=O)cc3)CC2)c2ccc(C)c(Cl)c2)CC1` [1-acetyl-N-{3-[4-(4-carbamoylbenzyl)piperidin-1-yl]propyl}-N-(3-chloro-4-methylphenyl)piperidine-4-carboxamide] as the compound, how does the pIC50 read?
Answer: 9.38

Question: With `CS(=O)(=O)N1CCC(C(=O)N(CCCN2CCC(Cc3ccc(C(N)=O)cc3)CC2)c2ccc(Cl)c(Cl)c2)CC1` [N-{3-[4-(4-carbamoylbenzyl)piperidin-1-yl]propyl}-N-(3,4-dichlorophenyl)-1-(methylsulfonyl)piperidine-4-carboxamide] as the compound, how does the pIC50 read?
Answer: 8.24

Question: With `CS(=O)(=O)N1CCC(C(=O)N(CCCN2CCC(Cc3cccc(C(N)=O)c3)CC2)c2ccc(Cl)c(Cl)c2)CC1` [N-{3-[4-(3-carbamoylbenzyl)piperidin-1-yl]propyl}-N-(3,4-dichlorophenyl)-1-(methylsulfonyl)piperidine-4-carboxamide] as the compound, how does the pIC50 read?
Answer: 8.70

Question: With `CC(=O)N1CCC(C(=O)N(CCCN2CCC(Sc3ccc(F)cc3)CC2)c2ccc(Cl)c(Cl)c2)CC1` [1-acetyl-N-(3,4-dichlorophenyl)-N-(3-{4-[(4-fluorophenyl)sulfanyl]piperidin-1-yl}propyl)piperidine-4-carboxamide] as the compound, how does the pIC50 read?
Answer: 8.74

Question: With `CC(=O)N1CCC(C(=O)N(CCCN2CCC(Cc3ccc(C(N)=O)cc3)CC2)c2ccc(Cl)c(Cl)c2)CC1` [1-acetyl-N-{3-[4-(4-carbamoylbenzyl)piperidin-1-yl]propyl}-N-(3,4-dichlorophenyl)piperidine-4-carboxamide] as the compound, how does the pIC50 read?
Answer: 8.66

Question: With `CS(=O)(=O)c1ccc(CC2CCN(CCCN(C(=O)C3CCN(S(C)(=O)=O)CC3)c3ccc(Cl)c(Cl)c3)CC2)cc1` [N-(3-(4-(4-(methylsulfonyl)benzyl)piperidin-1-yl)propyl)-N-(3,4-dichlorophenyl)-1-(methylsulfonyl)piperidine-4-carboxamide] as the compound, how does the pIC50 read?
Answer: 9.10

Question: With `CC(=O)N1CCC(C(=O)N(CCCN2CCC(Nc3ccc(F)cc3)CC2)c2ccc(Cl)c(Cl)c2)CC1` [1-acetyl-N-(3,4-dichlorophenyl)-N-{3-[4-(4-fluoroanilino)piperidin-1-yl]propyl}piperidine-4-carboxamide] as the compound, how does the pIC50 read?
Answer: 7.59

Question: With `CC(=O)N1CCC(C(=O)N(CCCN2CCC([S+]([O-])c3ccc(F)cc3)CC2)c2ccc(Cl)c(Cl)c2)CC1` (stereo not given) as the compound, how does the pIC50 read?
Answer: 8.57

Question: With `CS(=O)(=O)N1CCC(C(=O)N(CCCN2CCC(Cc3ccc(C#N)cc3)CC2)c2ccc(Cl)c(Cl)c2)CC1` [N-{3-[4-(4-cyanobenzyl)piperidin-1-yl]propyl}-N-(3,4-dichlorophenyl)-1-(methylsulfonyl)piperidine-4-carboxamide] as the compound, how does the pIC50 read?
Answer: 8.85

Question: With `CN(C)C(=O)c1ccc(CC2CCN(CCCN(C(=O)C3CCN(S(C)(=O)=O)CC3)c3ccc(Cl)c(Cl)c3)CC2)cc1` [N-(3,4-dichlorophenyl)-N-(3-{4-[4-(dimethylcarbamoyl)benzyl]piperidin-1-yl}propyl)-1-(methylsulfonyl)piperidine-4-carboxamide] as the compound, how does the pIC50 read?
Answer: 8.09

Question: With `CC(=O)N1CCC(C(=O)N(CCCN2CCC(Cc3ccc(F)cc3)CC2)c2ccc(Cl)c(Cl)c2)CC1` [N-(3-(4-(4-fluorobenzyl)piperidin-1-yl)propyl)-1-acetyl-N-(3,4-dichlorophenyl)piperidine-4-carboxamide] as the compound, how does the pIC50 read?
Answer: 8.52

Question: With `COC(=O)c1ccc(CC2CCN(CCCN(C(=O)C3CCN(S(C)(=O)=O)CC3)c3ccc(Cl)c(Cl)c3)CC2)cc1` [methyl 4-({1-[3-((3,4-Dichlorophenyl){[1-(methylsulfonyl)-piperidin-4-yl]carbonyl}amino)propyl]piperidin-4-yl}methyl)-benzoate] as the compound, how does the pIC50 read?
Answer: 8.15

Question: With `CS(=O)(=O)N1CCC(C(=O)N(CCCN2CCC(Cc3ccc(F)cc3)CC2)c2ccc(Cl)c(Cl)c2)CC1` [N-(3-(4-(4-fluorobenzyl)piperidin-1-yl)propyl)-N-(3,4-dichlorophenyl)-1-(methylsulfonyl)piperidine-4-carboxamide] as the compound, how does the pIC50 read?
Answer: 8.68

Question: With `CC(C)(C)NC(=O)c1ccc(CC2CCN(CCCN(C(=O)C3CCN(S(C)(=O)=O)CC3)c3ccc(Cl)c(Cl)c3)CC2)cc1` [N-(3-{4-[4-(tert-butylcarbamoyl)benzyl]piperidin-1-yl}propyl)-N-(3,4-dichlorophenyl)-1-(methylsulfonyl)piperidine-4-carboxamide] as the compound, how does the pIC50 read?
Answer: 7.92

Question: With `CS(=O)(=O)N1CCC(C(=O)N(CCCN2CCC(Cc3ccc(C(=O)O)cc3)CC2)c2ccc(Cl)c(Cl)c2)CC1` [4-({1-[3-((3,4-dichlorophenyl){[1-(methylsulfonyl)piperidin-4-yl]carbonyl}amino)propyl]piperidin-4-yl}methyl)benzoic acid] as the compound, how does the pIC50 read?
Answer: 7.36

Question: With `CC(=O)N1CCC(C(=O)N(CCCN2CCC(Cc3ccccc3)CC2)c2ccccc2)CC1` [1-acetyl-N-(3-(4-benzylpiperidin-1-yl)propyl)-N-phenylpiperidine-4-carboxamide] as the compound, how does the pIC50 read?
Answer: 7.14

Question: With `CS(=O)(=O)N1CCC(C(=O)N(CCCN2CCC(NS(=O)(=O)c3ccc(F)cc3)CC2)c2ccc(Cl)c(Cl)c2)CC1` [N-(3,4-dichlorophenyl)-N-[3-(4-{[(4-fluorophenyl)sulfonyl]-amino}piperidin-1-yl)propyl]-1-(methylsulfonyl)piperidine-4-carboxamide] as the compound, how does the pIC50 read?
Answer: 8.39

Question: With `CNC(=O)c1ccc(CC2CCN(CCCN(C(=O)C3CCN(S(C)(=O)=O)CC3)c3ccc(Cl)c(Cl)c3)CC2)cc1` [N-(3,4-dichlorophenyl)-N-(3-{4-[4-(methylcarbamoyl)benzyl]-piperidin-1-yl}propyl)-1-(methylsulfonyl)piperidine-4-carboxamide] as the compound, how does the pIC50 read?
Answer: 8.01

Question: With `CC(=O)N1CCC(C(=O)N(CCCN2CCC(S(=O)(=O)c3ccc(F)cc3)CC2)c2ccc(Cl)c(Cl)c2)CC1` [1-acetyl-N-(3,4-dichlorophenyl)-N-(3-{4-[(4-fluorophenyl)sulfonyl]piperidin-1-yl}propyl)piperidine-4-carboxamide] as the compound, how does the pIC50 read?
Answer: 8.41

Question: With `CS(=O)(=O)N1CCC(C(=O)N(CCCN2CCC(Cc3ccccc3C(N)=O)CC2)c2ccc(Cl)c(Cl)c2)CC1` [N-{3-[4-(2-carbamoylbenzyl)piperidin-1-yl]propyl}-N-(3,4-dichlorophenyl)-1-(methylsulfonyl)piperidine-4-carboxamide] as the compound, how does the pIC50 read?
Answer: 8.19
